Reference: PubChem BioAssay (NCI)
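Abbreviation: GI50, concentration required for 50% inhibition of growth. TGI marks complete inhibition of growth.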

Tests used:
Test in all cases: growth of human tumour cells (NCI), 384-well format
[1] = tested on: RPMI-8226 leukemia
[2] = tested on: DU-145 prostate
[3] = tested on: 786-0 renal
[4] = tested on: HOP-92 NSCLC
[5] = tested on: MDA-MB-468 breast
[6] = tested on: LOX IMVI melanoma
[7] = tested on: SK-MEL-5 melanoma
[8] = tested on: SF-295 CNS
[9] = tested on: CCRF-CEM leukemia
[10] = tested on: SR leukemia
[11] = tested on: UACC-257 melanoma
[12] = tested on: NCI-H460 NSCLC
[13] = tested on: MOLT-4 leukemia
[14] = tested on: UACC-62 melanoma
[15] = tested on: A498 renal
[16] = tested on: MDA-MB-435 melanoma
[17] = tested on: NCI-H522 lung
[18] = tested on: CAKI-1 renal
[19] = tested on: MALME-3M melanoma
[20] = tested on: NCI-H23 lung
[21] = tested on: NCI-H226 lung
[22] = tested on: HS 578T breast
[23] = tested on: SK-MEL-28 melanoma
[24] = tested on: OVCAR-3 ovarian
[25] = tested on: OVCAR-5 ovarian
[26] = tested on: COLO 205 colon
[27] = tested on: HT29 colon
[28] = tested on: SNB-75 CNS
[29] = tested on: RXF 393 renal
[30] = tested on: NCI-H322M lung
[31] = tested on: SF-268 CNS
[32] = tested on: EKVX NSCLC
[33] = tested on: NCI/ADR-RES ovarian
[34] = tested on: ACHN renal
[35] = tested on: HOP-62 NSCLC
[36] = tested on: OVCAR-4 ovarian
[37] = tested on: HCC-2998 colon
[38] = tested on: SN12C renal
[39] = tested on: HCT-15 colon
[40] = tested on: PC-3 prostate
[41] = tested on: K-562 leukemia
[42] = tested on: SNB-19 CNS
[43] = tested on: SK-MEL-2 melanoma
[44] = tested on: MDA-MB-231 breast
[45] = tested on: IGROV1 ovarian
[46] = tested on: HCT-116 colon
[47] = tested on: T-47D breast

CC(C)(O)CNc1nc(Nc2ccnc(C(F)(F)F)c2)nc(-c2cccc(C(F)(F)F)n2)n1
GI50 [1]: 18.7 µM | TGI [1]: 32.9 µM | GI50 [2]: 16.3 µM | TGI [2]: 31.6 µM | GI50 [3]: 17.4 µM | TGI [3]: 37.6 µM | GI50 [4]: 19.3 µM | TGI [4]: 37.7 µM | GI50 [5]: 20.3 µM | TGI [5]: 35 µM | GI50 [6]: 10.7 µM | TGI [6]: 25.1 µM | GI50 [7]: 13.8 µM | TGI [7]: 26.8 µM | GI50 [8]: 16 µM | TGI [8]: 29.8 µM | GI50 [9]: 14.4 µM | TGI [9]: 28.1 µM | GI50 [10]: 4.82 µM | TGI [10]: 17.5 µM | GI50 [11]: 19.4 µM | TGI [11]: 33.8 µM | GI50 [12]: 17.5 µM | TGI [12]: 32.6 µM | GI50 [13]: 13.7 µM | TGI [13]: 26.8 µM | GI50 [14]: 17.8 µM | TGI [14]: 31.8 µM | GI50 [15]: 19.9 µM | TGI [15]: 39.9 µM | GI50 [16]: 19.9 µM | TGI [16]: 37.7 µM | GI50 [17]: 17.5 µM | TGI [17]: 35.4 µM | GI50 [18]: 21.3 µM | TGI [18]: 45.2 µM | GI50 [19]: 18.4 µM | TGI [19]: 33.9 µM | GI50 [20]: 18.7 µM | TGI [20]: 35.6 µM | GI50 [21]: 16.2 µM | TGI [21]: 31.7 µM | GI50 [22]: 14.6 µM | TGI [22]: 29.5 µM | GI50 [23]: 16.9 µM | TGI [23]: 31 µM | GI50 [24]: 17.6 µM | TGI [24]: 32.9 µM | GI50 [25]: 27.3 µM | TGI [25]: 73.5 µM | GI50 [26]: 18.5 µM | TGI [26]: 34.8 µM | GI50 [27]: 15.2 µM | TGI [27]: 29.6 µM | GI50 [28]: 18.8 µM | TGI [28]: 37.2 µM | GI50 [29]: 12.3 µM | TGI [29]: 27.5 µM | GI50 [30]: 16.1 µM | TGI [30]: 31.4 µM | GI50 [31]: 20.2 µM | TGI [31]: 40.3 µM | GI50 [32]: 19 µM | TGI [32]: 38.5 µM | GI50 [33]: 13.9 µM | TGI [33]: 27.5 µM | GI50 [34]: 20.9 µM | TGI [34]: 40.5 µM | GI50 [35]: 15.1 µM | TGI [35]: 28.8 µM | GI50 [36]: 19.7 µM | TGI [36]: 36.3 µM | GI50 [37]: 16.3 µM | TGI [37]: 30.4 µM | GI50 [38]: 19.8 µM | TGI [38]: 40.8 µM | GI50 [39]: 13.5 µM | TGI [39]: 28.1 µM | GI50 [40]: 18.2 µM | TGI [40]: 33.9 µM | GI50 [41]: 14.7 µM | TGI [41]: 28.7 µM | GI50 [42]: 32.3 µM | TGI [42]: 87.2 µM | GI50 [43]: 0.265 µM | TGI [43]: 1.17 µM | GI50 [44]: 18.7 µM | TGI [44]: 34.5 µM | GI50 [45]: 18.6 µM | TGI [45]: 37.4 µM | GI50 [46]: 17.3 µM | TGI [46]: 33.2 µM | GI50 [47]: 9.87 µM | TGI [47]: 23 µM
